How the values were obtained:
[1] = target: T1, FKBP52 (Homo sapiens, UniProt Q02790); assay: Fluorescence polarization (FP) assay, binding to the FK506-binding domain of FKBP52; conditions: FK506-binding domain of FKBP52 (FKBP52FK1), competition with fluorescent ligand 2b
T1 sequence (Q02790 50-138 limits assumed): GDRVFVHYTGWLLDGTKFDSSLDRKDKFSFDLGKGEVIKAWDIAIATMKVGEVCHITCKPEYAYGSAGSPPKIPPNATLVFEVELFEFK
Experimental: (§1) In the present invention, in vitro fluorescence polarization assays with the compounds of the general formula (I) were performed to determine the binding affinities to FKBP51 and FKBP52 or to the isolated FK506-binding domains of FKBP51 and FKBP52 ([…]). Binding to the isolated FK506-binding domains is reliably indicative of binding to the full length proteins. The affinities for the isolated FK506-binding domains and for full-length FKBP51 or FKBP52 are the same for all compounds tested so far (Kozany et al, ChemBioChem 2009, 10, 1402-1410).
(§2) Example 11: Fluorescence Polarization (FP) Assays
(§3) In-vitro fluorescence polarization assays were performed to determine the binding affinities for FKBP51 and 52 according to a literature procedure (Kozany, C.; Marz, A.; Kress, C.; Hausch, F., Fluorescent probes to characterise FK506-binding proteins. Chembiochem 2009, 10, (8), 1402-10).
(§4) For fluorescence polarization assays the fluorescent ligand 2b was dissolved in HEPES (20 mm, pH 8), Triton-X100 (0.01%), at double the concentration required for the final sample. The target protein was also diluted in this assay buffer at double the highest concentration required for the final sample. This protein stock was used for a 1:1 serial dilution.
(§5) The fluorescent ligand 2b was diluted in assay buffer to a concentration double the final concentration (20 nM 2b). The inventive compound was dissolved in DMSO to reach a 100-times concentrated stock solution. This was used for a 1:1 serial dilution in DMSO. Every sample of this serial dilution was diluted by a factor of 50 in assay buffer supplemented with ligand 2b to achieve a 2× concentrated mixture of ligand 2b and the inventive compound. To this competitive ligand double the protein concentration for 2b assay: FKBP51FK1 560 nM (2×280 nM) or FKBP52FK1 800 nM (2×400 nM) diluted in assay buffer was added.
(§6) The samples were transferred to black 384-well assay plates (No.: 3575; Corning Life Sciences). After incubation at room temperature for 30 min the fluorescence anisotropy was measured (GENios Pro, Tecan, Männedorf, Switzerland) by using an excitation filters of 485/20 nm and emission filters of 535/25 nm. The binding assays were performed in duplicates in the plate format.
(§7) The competition curves were analyzed by using SigmaPlot9. Data were fitted to a four parameter logistic curve to deduce the IC50 values. For the analysis of K1 values, data were fitted to the following equation (Z. X. Wang, FEBS Lett. 1995, 360, 111-114). A=(Amax−Amin)/[L]t×(([L]t×((2×((Klig+Kcomp+[L]t+[I]t−[R]t)^2−3×(Kcomp×([L]t−[R]t)+Klig×([I]t−[R]t)+[…]))^0.5×COS(ARCCOS((−2×(Klig+Kcomp+[L]t+[I]t−[R]t)^3+9×(Klig+Kcomp+[L]t+[I]t−[R]t)×(Kcomp×([L]t−[R]t)+Klig×([I]t−[R]t)+Klig×Kcomp)−27×(−1×Klig×Kcomp×[R]t))/(2×((((Klig+Kcomp+[L]t+[I]t−[R]t)^2−3×(Kcomp×([L]t−[R]t)+Klig×([I]t−[R]t)+Klig×Kcomp))^3)^0.5)))/3))−(Klig+Kcomp+[L]t+[I]t−[R]t)))/((3×Klig)+((2×((Klig+Kcomp+[L]t+[I]t−[R]t)^2−3×(Kcomp×([L]t−[R]t)+Klig×([I]t−[R]t)+Klig×Kcomp))^0.5×COS(ARCCOS((−2×(Klig+Kcomp+[L]t+[I]t−[R]t)^3+9×(Klig+Kcomp+[L]t+[I]t−[R]t)×(Kcomp×([L]t−[R]t)+Klig×([I]t−[R]t)+Klig×Kcomp)−27×(−1×Klig×Kcomp×[R]t))/(2×((((Klig+Kcomp+[L]t+[I]t−[R]t)^2−3×(Kcomp×([L]t−[R]t)+Klig×([I]t−[R]t)+Klig×Kcomp))^3)^0.5)))/3))−(Klig+Kcomp+[L]t+[I]t−[R]t)))+Amin
(§8) In this equation Klig and Kcomp stand for the Kd values of the used tracer or competing inhibitor, [I]t is referring to the total concentration of the titrated inhibitor.

[2] = target: T2, FKBP51 (Homo sapiens, UniProt Q13451); assay: Fluorescence polarization (FP) assay, binding to the FK506-binding domain of FKBP51; conditions: FK506-binding domain of FKBP51 (FKBP51FK1), competition with fluorescent ligand 2b
T2 sequence (Q13451 42-130 limits assumed): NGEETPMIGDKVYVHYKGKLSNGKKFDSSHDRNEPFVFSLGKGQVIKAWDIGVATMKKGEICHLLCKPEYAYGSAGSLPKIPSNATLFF
Experimental: as §1, §2, §3, §4, §5, §6, §7, §8

Row | Compound | Ki [1] | Ki [2]
1 | C=C[C@@H]1CN(Cc2ccccn2)C(=O)[C@@H]2CCC[C@H]1N2S(=O)(=O)c1cc(Cl)cc(C(=O)OC)c1 [Compound K25, methyl 3-chloro-5-(((1S,5R,6R)-2-oxo-3-(pyridin-2-ylmethyl)-5-vinyl-3,10-diazabicyclo[4.3.1]decan-10-yl)sulfonyl)benzoate] | ≤ 0.1 µM | ≤ 0.1 µM
2 | COCCN1C[C@H](CCO)[C@H]2CCC[C@@H](C1=O)N2S(=O)(=O)c1cc(Cl)cc(Cl)c1 [Compound B8, (1S,5S,6R)-10-((3,5-dichlorophenyl)sulfonyl)-5-(2-hydroxyethyl)-3-(2-methoxyethyl)-3,10-diazabicyclo[4.3.1]decan-2-one] | 0.1 to 0.5 µM | 0.1 to 0.5 µM
3 | C#CCN1C[C@H](COC)[C@H]2CCC[C@@H](C1=O)N2S(=O)(=O)c1cc(Cl)cc(C(N)=O)c1 [Compound N6, 3-chloro-5-(((1S,5S,6R)-5-(methoxymethyl)-2-oxo-3-(prop-2-yn-1-yl)-3,10-diazabicyclo[4.3.1]decan-10-yl)sulfonyl)benzamide] | 0.1 to 0.5 µM | 0.1 to 0.5 µM
4 | COc1ccc(OCCN2CCC3CCCC(C2=O)N3S(=O)(=O)c2ccc3ncsc3c2)cc1OC (stereo not shown) [Ref. 2, reference compound] | 1 to 5 µM | 1 to 5 µM
5 | C=CC1CN(Cc2ccccn2)C(=O)C2CCCC1N2S(=O)(=O)c1ccc(NC(C)=O)c(Cl)c1 (stereo in doubt) [Compound K21, N-(2-chloro-4-(((1S,5R,6R)-2-oxo-3-(pyridin-2-ylmethyl)-5-vinyl-3,10-diazabicyclo[4.3.1]decan-10-yl)sulfonyl)phenyl)acetamide] | 0.1 to 0.5 µM | 0.1 to 0.5 µM
6 | C#CCN1C[C@H](COC)[C@H]2CCC[C@@H](C1=O)N2S(=O)(=O)c1ccc(-c2ncccn2)cc1 [Compound N15, (1S,5S,6R)-5-(methoxymethyl)-3-(prop-2-yn-1-yl)-10-((4-(pyrimidin-2-yl)phenyl)sulfonyl)-3,10-diazabicyclo[4.3.1]decan-2-one] | 0.1 to 0.5 µM | 0.1 to 0.5 µM
7 | COC[C@H]1CN(Cc2cnnn2S(=O)(=O)c2ccccc2)C(=O)[C@@H]2CCC[C@H]1N2S(=O)(=O)c1cccc(F)c1 [Compound N32, (1S,5S,6R)-10-((3-fluorophenyl)sulfonyl)-5-(methoxymethyl)-3-((1-(phenylsulfonyl)-1H-1,2,3-triazol-5-yl)methyl)-3,10-diazabicyclo[4.3.1]decan-2-one] | 0.1 to 0.5 µM | 0.1 to 0.5 µM
8 | COCCCN1CC(CO)C2CCCC(C1=O)N2S(=O)(=O)c1cc(Cl)cc(Cl)c1 (stereo in doubt) [Compound J6, (1S,5R,6R)-10-((3,5-dichlorophenyl)sulfonyl)-5-(hydroxymethyl)-3-(3-methoxypropyl)-3,10-diazabicyclo[4.3.1]decan-2-one] | 0.5 to 1 µM | 0.1 to 0.5 µM
9 | C=CC1CN(Cc2ccccn2)C(=O)C2CCCC1N2S(=O)(=O)c1cccc(Cl)c1 (stereo in doubt) [Compound K11, (1S,5R,6R)-10-((3-chlorophenyl)sulfonyl)-3-(pyridin-2-ylmethyl)-5-vinyl-3,10-diazabicyclo[4.3.1]decan-2-one] | 0.1 to 0.5 µM | 0.1 to 0.5 µM
10 | C=CC1CN(Cc2ccccn2)C(=O)C2CCCC1N2S(=O)(=O)c1cccnc1 (stereo in doubt) [Compound K26, (1S,5R,6R)-3-(pyridin-2-ylmethyl)-10-(pyridin-3-ylsulfonyl)-5-vinyl-3,10-diazabicyclo[4.3.1]decan-2-one] | 0.1 to 0.5 µM | 0.1 to 0.5 µM
11 | CN(C)C[C@H]1CN(Cc2ccccn2)C(=O)[C@@H]2CCC[C@H]1N2S(=O)(=O)c1cc(Cl)cc(Cl)c1 [Compound M2, (1S,5S,6R)-10-((3,5-dichlorophenyl)sulfonyl)-5-((dimethylamino)methyl)-3-(pyridin-2-ylmethyl)-3,10-diazabicyclo[4.3.1]decan-2-one] | ≤ 0.1 µM | ≤ 0.1 µM
12 | CC[C@H]1CN(CCOC)C(=O)[C@@H]2CCC[C@H]1N2S(=O)(=O)c1cc(Cl)cc(Cl)c1 [Compound B15, (1S,5S,6R)-10-((3,5-dichlorophenyl)sulfonyl)-5-ethyl-3-(2-methoxyethyl)-3,10-diazabicyclo[4.3.1]decan-2-one] | ≤ 0.1 µM | ≤ 0.1 µM
13 | C=C[C@@H]1CN(Cc2ccccn2)C(=O)[C@@H]2CCC[C@H]1N2S(=O)(=O)c1cccc(C(=O)OC)c1 [Compound K23, methyl 3-(((1S,5R,6R)-2-oxo-3-(pyridin-2-ylmethyl)-5-vinyl-3,10-diazabicyclo[4.3.1]decan-10-yl)sulfonyl)benzoate] | 0.5 to 1 µM | 0.5 to 1 µM
14 | C=C[C@@H]1CN(Cc2ccccn2)C(=O)[C@@H]2CCC[C@H]1N2S(=O)(=O)c1cc(Cl)cc(C(N)=O)c1 [Compound K19, 3-chloro-5-(((1S,5R,6R)-2-oxo-3-(pyridin-2-ylmethyl)-5-vinyl-3,10-diazabicyclo[4.3.1]decan-10-yl)sulfonyl)benzamide] | 0.1 to 0.5 µM | 0.1 to 0.5 µM
15 | COC[C@H]1CN(Cc2cnn[nH]2)C(=O)[C@@H]2CCC[C@H]1N2S(=O)(=O)c1cc(Cl)c(NC(C)=O)c(Cl)c1 [Compound N24, N-(4-(((1S,5S,6R)-3-((1H-1,2,3-triazol-5-yl)methyl)-5-(methoxymethyl)-2-oxo-3,10-diazabicyclo[4.3.1]decan-10-yl)sulfonyl)-2,6-dichlorophenyl)acetamide] | ≤ 0.1 µM | ≤ 0.1 µM
16 | COc1ccc(OCCN2C[C@H](O)[C@H]3CCC[C@@H](C2=O)N3S(=O)(=O)c2cc(Cl)cc(Cl)c2)cc1OC [Compound H2.3, (1S,5S,6R)-10-((3,5-dichlorophenyl)sulfonyl)-3-(2-(3,4-dimethoxyphenoxy)ethyl)-5-hydroxy-3,10-diazabicyclo[4.3.1]decan-2-one] | 0.1 to 0.5 µM | ≤ 0.1 µM
17 | COc1ccc(OCCN2C[C@H](C[C@H](C)O)C3CCCC(C2=O)N3S(=O)(=O)c2cc(Cl)cc(Cl)c2)cc1OC (single isomer, unassigned) [Compound D5] | ≤ 0.1 µM | ≤ 0.1 µM
18 | COCCN1C[C@H](C(C)O)C2CCCC(C1=O)N2S(=O)(=O)c1cc(Cl)cc(Cl)c1 (stereo in doubt) [Compound B6, (1S,5S,6R)-10-((3,5-dichlorophenyl)sulfonyl)-5-((R)-1-hydroxyethyl)-3-(2-methoxyethyl)-3,10-diazabicyclo[4.3.1]decan-2-one] | ≤ 0.1 µM | ≤ 0.1 µM
19 | COC[C@H]1CN(Cc2cnn[nH]2)C(=O)[C@@H]2CCC[C@H]1N2S(=O)(=O)c1ccc(NC(C)=O)c(Cl)c1 [Compound N23, N-(4-(((1S,5S,6R)-3-((1H-1,2,3-triazol-5-yl)methyl)-5-(methoxymethyl)-2-oxo-3,10-diazabicyclo[4.3.1]decan-10-yl)sulfonyl)-2-chlorophenyl)acetamide] | ≤ 0.1 µM | ≤ 0.1 µM
20 | C=CC1CN(Cc2cnccn2)C(=O)C2CCCC1N2S(=O)(=O)c1cc(Cl)cc(Cl)c1 (stereo in doubt) [Compound J14, (1S,5R,6R)-10-((3,5-dichlorophenyl)sulfonyl)-3-(pyrazin-2-ylmethyl)-5-vinyl-3,10-diazabicyclo[4.3.1]decan-2-one] | 0.1 to 0.5 µM | 0.1 to 0.5 µM
